Key:
[1] = target: PRKACA (PKA) (Homo sapiens, UniProt P17612); test: SelectScreen Z'LYTE kinase profiling; type: biochemical; settings: ATP at apparent KM
Procedure: (§1) protein kinases at a compound concentration of 1 µM. Measurements were performed in duplicates
(§2) and at the particular apparent ATP KM of each individual kinase employing the activity based Z’LYTE®
(§3) kinase assay of the SelectScreen® Kinase Profiling Services (ThermoFisher Scientific).
(§4) kinases at a compound concentration of 1 µM. Measurements were performed in duplicates and at
(§5) the particular apparent ATP KM of each individual kinase employing the activity based Z’LYTE® kinase
(§6) assay of the SelectScreen® Kinase Profiling Services (ThermoFisher Scientific).

[2] = target: T1, SGK2 (Homo sapiens, UniProt Q9HBY8); test: SelectScreen Z'LYTE kinase profiling; type: biochemical; settings: ATP at apparent KM
T1 sequence (Q9HBY8 1-367): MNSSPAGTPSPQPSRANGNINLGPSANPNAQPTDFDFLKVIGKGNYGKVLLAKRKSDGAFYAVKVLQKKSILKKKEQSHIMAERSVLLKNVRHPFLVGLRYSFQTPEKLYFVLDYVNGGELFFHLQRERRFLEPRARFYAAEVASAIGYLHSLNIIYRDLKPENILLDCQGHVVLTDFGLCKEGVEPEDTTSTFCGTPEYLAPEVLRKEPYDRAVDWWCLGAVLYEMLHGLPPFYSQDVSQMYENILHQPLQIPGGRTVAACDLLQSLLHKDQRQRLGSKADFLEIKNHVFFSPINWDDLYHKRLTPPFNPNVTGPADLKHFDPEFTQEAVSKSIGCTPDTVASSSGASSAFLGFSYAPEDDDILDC
Procedure: as §1, §2, §3, §4, §5, §6

[3] = target: FRAP1 (mTOR) (Homo sapiens, UniProt P42345); test: SelectScreen Z'LYTE kinase profiling; type: biochemical; settings: ATP at apparent KM
Procedure: as §1, §2, §3, §4, §5, §6

[4] = target: ROCK1 (Homo sapiens, UniProt Q13464); test: SelectScreen Z'LYTE kinase profiling; type: biochemical; settings: ATP at apparent KM
Sequence of ROCK1 (Q13464 whole entry): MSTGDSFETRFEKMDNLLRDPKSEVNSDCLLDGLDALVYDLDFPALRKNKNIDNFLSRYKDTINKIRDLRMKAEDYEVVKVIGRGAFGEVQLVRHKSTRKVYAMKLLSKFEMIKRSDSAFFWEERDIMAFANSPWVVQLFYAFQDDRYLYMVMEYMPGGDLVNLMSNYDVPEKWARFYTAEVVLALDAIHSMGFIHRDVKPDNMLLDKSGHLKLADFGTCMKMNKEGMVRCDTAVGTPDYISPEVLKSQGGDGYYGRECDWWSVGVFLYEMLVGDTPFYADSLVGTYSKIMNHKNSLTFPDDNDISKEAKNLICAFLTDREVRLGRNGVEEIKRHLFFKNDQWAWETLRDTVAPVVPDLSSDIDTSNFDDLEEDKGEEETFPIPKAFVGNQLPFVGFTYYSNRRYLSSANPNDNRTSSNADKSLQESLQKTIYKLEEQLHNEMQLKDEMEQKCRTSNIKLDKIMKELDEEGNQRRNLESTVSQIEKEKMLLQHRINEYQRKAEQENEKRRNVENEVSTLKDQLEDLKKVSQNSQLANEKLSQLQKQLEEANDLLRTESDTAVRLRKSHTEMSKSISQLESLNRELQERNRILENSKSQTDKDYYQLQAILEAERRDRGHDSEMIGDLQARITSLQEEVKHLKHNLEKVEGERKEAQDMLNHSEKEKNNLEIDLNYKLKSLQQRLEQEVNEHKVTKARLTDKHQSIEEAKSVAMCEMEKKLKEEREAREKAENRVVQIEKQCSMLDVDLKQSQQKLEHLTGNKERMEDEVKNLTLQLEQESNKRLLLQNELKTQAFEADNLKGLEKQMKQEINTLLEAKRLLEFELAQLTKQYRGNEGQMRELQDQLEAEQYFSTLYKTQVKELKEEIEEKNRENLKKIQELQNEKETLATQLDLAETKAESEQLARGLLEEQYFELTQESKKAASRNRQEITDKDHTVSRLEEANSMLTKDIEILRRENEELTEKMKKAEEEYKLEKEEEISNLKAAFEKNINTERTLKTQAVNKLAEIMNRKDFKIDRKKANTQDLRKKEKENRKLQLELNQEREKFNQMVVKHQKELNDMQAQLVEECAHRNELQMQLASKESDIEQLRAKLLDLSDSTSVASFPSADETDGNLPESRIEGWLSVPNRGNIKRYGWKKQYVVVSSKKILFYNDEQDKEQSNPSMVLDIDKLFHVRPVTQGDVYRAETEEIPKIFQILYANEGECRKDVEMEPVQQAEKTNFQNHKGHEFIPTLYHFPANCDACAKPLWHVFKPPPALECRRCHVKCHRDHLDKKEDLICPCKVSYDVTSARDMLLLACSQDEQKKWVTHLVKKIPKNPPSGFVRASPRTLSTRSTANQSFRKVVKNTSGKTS
Procedure: as §1, §2, §3, §4, §5, §6

[5] = target: RET (Homo sapiens, UniProt P07949); test: SelectScreen Z'LYTE kinase profiling; type: biochemical; settings: ATP at apparent KM
Procedure: as §1, §2, §3, §4, §5, §6

[6] = target: T2, AURKA (Aurora A) (Homo sapiens, UniProt O14965); test: SelectScreen Z'LYTE kinase profiling; type: biochemical; settings: ATP at apparent KM
T2 sequence (O14965 1-403): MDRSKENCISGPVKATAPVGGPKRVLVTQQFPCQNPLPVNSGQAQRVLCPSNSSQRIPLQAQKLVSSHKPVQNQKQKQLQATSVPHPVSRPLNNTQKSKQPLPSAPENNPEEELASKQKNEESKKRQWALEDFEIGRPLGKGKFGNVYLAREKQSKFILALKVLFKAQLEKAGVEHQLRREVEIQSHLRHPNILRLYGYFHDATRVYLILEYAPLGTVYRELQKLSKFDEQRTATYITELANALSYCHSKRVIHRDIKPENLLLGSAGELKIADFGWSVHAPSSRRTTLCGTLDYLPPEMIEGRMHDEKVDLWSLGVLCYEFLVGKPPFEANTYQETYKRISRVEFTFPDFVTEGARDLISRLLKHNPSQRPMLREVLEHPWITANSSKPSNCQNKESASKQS
Procedure: as §1, §2, §3, §4, §5, §6

[7] = target: MELK (Homo sapiens, UniProt Q14680); test: SelectScreen Z'LYTE kinase profiling; type: biochemical; settings: ATP at apparent KM
Sequence of MELK (Q14680 whole entry): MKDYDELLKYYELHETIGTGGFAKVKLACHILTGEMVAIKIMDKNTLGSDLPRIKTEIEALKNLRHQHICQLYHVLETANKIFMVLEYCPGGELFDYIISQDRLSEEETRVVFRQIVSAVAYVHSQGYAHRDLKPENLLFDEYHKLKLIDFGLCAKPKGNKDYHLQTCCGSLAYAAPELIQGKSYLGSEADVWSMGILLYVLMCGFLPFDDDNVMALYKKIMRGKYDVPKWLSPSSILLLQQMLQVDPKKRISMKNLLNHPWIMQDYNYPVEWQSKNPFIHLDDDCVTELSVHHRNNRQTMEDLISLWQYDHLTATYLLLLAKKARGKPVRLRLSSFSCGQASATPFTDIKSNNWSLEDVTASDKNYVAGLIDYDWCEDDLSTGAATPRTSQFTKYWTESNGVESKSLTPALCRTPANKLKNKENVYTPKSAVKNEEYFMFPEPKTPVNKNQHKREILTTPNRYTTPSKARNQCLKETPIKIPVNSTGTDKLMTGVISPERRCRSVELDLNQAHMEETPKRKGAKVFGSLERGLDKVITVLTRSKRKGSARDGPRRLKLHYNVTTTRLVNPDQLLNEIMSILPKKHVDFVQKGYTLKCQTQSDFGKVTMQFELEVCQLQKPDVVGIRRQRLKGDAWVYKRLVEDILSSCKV
Procedure: as §1, §2, §3, §4, §5, §6

[8] = target: RPS6KA1 (RSK1) (Homo sapiens, UniProt Q15418); test: SelectScreen Z'LYTE kinase profiling; type: biochemical; settings: ATP at apparent KM
Procedure: as §1, §2, §3, §4, §5, §6

[9] = target: MARK2 (Homo sapiens, UniProt Q7KZI7); test: SelectScreen Z'LYTE kinase profiling; type: biochemical; settings: ATP at apparent KM
Sequence of MARK2 (Q7KZI7 whole entry): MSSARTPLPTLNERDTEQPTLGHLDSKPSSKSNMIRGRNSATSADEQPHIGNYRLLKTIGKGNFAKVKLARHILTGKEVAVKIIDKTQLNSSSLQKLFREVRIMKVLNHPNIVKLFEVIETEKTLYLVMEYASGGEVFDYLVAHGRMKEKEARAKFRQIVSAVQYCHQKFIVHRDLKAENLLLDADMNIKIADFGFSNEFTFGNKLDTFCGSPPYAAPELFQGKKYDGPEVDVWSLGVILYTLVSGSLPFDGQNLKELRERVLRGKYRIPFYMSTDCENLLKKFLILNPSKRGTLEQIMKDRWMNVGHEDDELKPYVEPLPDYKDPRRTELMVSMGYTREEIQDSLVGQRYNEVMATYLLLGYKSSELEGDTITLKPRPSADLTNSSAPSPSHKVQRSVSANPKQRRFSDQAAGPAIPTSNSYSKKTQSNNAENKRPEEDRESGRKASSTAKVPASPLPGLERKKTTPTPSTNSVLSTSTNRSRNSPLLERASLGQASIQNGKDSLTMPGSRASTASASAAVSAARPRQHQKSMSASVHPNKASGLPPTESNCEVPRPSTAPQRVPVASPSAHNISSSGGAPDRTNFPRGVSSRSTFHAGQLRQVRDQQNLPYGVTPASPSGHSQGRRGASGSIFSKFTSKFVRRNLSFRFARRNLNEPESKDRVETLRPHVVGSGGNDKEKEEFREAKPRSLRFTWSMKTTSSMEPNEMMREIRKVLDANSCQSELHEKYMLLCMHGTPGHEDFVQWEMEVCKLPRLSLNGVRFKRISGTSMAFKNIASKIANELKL
Procedure: as §1, §2, §3, §4, §5, §6

[10] = target: T3, BMX (Homo sapiens, UniProt P51813); test: SelectScreen Z'LYTE kinase profiling; type: biochemical; settings: ATP at apparent KM
T3 sequence (P51813 1-675): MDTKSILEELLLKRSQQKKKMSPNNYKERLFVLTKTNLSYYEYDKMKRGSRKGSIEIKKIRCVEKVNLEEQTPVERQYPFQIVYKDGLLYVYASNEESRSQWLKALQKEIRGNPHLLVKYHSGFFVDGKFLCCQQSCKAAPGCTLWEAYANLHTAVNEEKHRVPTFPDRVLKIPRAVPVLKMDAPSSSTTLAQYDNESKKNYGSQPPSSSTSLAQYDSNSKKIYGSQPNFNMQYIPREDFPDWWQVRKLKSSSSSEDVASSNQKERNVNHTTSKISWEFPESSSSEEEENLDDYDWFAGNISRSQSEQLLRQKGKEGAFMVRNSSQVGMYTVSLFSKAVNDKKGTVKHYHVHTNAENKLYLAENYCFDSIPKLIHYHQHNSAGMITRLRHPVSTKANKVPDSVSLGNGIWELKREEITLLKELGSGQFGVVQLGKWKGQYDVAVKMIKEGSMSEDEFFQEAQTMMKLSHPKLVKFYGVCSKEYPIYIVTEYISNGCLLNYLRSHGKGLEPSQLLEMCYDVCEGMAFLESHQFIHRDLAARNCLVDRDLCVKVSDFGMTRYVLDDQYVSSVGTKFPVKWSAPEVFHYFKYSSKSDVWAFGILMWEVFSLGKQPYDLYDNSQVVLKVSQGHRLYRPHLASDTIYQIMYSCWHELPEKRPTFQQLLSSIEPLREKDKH
Procedure: as §1, §2, §3, §4, §5, §6

[11] = target: EPHA2 (Homo sapiens, UniProt P29317); test: SelectScreen Z'LYTE kinase profiling; type: biochemical; settings: ATP at apparent KM
Sequence of EPHA2 (P29317 24-976): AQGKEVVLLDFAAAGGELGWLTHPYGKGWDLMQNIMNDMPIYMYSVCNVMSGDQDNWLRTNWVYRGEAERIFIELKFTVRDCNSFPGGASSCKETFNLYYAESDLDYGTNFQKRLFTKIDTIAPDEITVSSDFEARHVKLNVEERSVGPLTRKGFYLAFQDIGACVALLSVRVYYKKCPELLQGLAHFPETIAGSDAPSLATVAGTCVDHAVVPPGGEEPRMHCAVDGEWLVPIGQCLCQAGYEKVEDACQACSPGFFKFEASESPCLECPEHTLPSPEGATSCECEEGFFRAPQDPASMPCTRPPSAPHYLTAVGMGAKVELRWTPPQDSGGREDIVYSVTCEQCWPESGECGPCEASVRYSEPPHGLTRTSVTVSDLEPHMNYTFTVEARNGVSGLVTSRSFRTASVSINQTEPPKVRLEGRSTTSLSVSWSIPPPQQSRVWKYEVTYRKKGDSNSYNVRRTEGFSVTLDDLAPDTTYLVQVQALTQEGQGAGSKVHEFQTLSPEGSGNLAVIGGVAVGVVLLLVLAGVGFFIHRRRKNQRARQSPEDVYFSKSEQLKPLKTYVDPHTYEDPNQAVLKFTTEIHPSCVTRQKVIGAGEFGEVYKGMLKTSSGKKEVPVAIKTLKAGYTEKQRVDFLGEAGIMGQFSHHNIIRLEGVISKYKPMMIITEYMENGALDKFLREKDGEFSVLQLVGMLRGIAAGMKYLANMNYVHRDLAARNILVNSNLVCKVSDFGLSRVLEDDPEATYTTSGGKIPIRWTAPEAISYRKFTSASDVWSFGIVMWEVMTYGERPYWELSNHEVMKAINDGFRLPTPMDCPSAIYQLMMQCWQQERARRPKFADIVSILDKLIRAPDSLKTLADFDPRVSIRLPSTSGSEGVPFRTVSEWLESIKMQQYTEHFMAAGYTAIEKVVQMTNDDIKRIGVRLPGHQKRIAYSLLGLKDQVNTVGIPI
Procedure: as §1, §2, §3, §4, §5, §6

[12] = target: RPS6KA5 (MSK1) (Homo sapiens, UniProt O75582); test: SelectScreen Z'LYTE kinase profiling; type: biochemical; settings: ATP at apparent KM
Sequence of RPS6KA5 (MSK1) (O75582 whole entry): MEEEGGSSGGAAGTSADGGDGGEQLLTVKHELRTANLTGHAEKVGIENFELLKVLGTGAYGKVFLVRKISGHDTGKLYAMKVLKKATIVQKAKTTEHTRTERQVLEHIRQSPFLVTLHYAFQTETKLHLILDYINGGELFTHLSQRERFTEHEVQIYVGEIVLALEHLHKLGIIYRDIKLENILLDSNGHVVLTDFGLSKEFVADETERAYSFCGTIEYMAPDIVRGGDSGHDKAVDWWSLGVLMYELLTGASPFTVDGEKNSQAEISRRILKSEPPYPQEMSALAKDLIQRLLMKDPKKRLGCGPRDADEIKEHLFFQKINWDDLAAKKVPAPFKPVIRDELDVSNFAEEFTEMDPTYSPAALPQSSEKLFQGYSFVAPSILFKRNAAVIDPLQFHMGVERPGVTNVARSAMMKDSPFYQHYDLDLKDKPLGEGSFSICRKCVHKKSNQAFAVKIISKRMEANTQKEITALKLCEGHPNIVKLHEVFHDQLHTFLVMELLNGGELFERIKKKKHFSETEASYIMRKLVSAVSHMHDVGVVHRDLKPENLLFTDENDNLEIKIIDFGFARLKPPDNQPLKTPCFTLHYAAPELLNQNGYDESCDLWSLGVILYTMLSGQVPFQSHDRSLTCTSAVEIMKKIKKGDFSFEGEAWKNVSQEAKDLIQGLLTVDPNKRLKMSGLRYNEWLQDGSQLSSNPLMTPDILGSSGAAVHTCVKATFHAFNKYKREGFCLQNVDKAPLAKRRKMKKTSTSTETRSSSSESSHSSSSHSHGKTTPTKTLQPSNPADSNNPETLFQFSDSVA
Procedure: as §1, §2, §3, §4, §5, §6

[13] = target: T4, CAMK4 (CaMKIV) (Homo sapiens, UniProt Q16566); test: SelectScreen Z'LYTE kinase profiling; type: biochemical; settings: ATP at apparent KM
T4 sequence (Q16566 1-473): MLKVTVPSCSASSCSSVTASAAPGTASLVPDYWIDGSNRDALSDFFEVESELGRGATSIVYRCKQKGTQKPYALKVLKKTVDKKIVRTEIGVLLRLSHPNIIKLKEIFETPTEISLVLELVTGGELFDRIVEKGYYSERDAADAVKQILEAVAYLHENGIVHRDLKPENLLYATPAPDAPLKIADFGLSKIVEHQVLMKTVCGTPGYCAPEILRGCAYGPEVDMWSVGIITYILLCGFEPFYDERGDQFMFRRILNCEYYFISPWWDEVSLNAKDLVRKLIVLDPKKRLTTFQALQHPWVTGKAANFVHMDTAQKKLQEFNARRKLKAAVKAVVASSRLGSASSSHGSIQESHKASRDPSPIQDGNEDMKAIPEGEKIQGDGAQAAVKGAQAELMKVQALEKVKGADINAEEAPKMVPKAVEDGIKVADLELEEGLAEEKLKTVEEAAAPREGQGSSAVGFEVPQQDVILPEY
Procedure: as §1, §2, §3, §4, §5, §6

[14] = target: PKN1 (PRK1) (Homo sapiens, UniProt Q16512); test: SelectScreen Z'LYTE kinase profiling; type: biochemical; settings: ATP at apparent KM
Procedure: as §1, §2, §3, §4, §5, §6

[15] = target: GRK6 (Homo sapiens, UniProt P43250); test: SelectScreen Z'LYTE kinase profiling; type: biochemical; settings: ATP at apparent KM
Procedure: as §1, §2, §3, §4, §5, §6

[16] = Phase I metabolic stability assay; settings: human, liver microsomes
Procedure: For this purpose, we used a microsomal stability assay that is a good predictor for phase I metabolic stability.[50]
Metabolic stability under oxidative conditions was determined by LCMS-based measuring of
degradation of compounds at 3 µM in human and murine liver microsomes over 60 minutes at 37 °C
Calculating the compound half-life t1/2, the in vitro intrinsic clearance CLint is

[17] = target: full-length Akt (Akt^wt) (Homo sapiens, UniProt P31749); test: HTRF KinEASE activity-based assay, IC50 determination; type: biochemical
Sequence of full-length Akt (Akt^wt) (P31749 whole entry): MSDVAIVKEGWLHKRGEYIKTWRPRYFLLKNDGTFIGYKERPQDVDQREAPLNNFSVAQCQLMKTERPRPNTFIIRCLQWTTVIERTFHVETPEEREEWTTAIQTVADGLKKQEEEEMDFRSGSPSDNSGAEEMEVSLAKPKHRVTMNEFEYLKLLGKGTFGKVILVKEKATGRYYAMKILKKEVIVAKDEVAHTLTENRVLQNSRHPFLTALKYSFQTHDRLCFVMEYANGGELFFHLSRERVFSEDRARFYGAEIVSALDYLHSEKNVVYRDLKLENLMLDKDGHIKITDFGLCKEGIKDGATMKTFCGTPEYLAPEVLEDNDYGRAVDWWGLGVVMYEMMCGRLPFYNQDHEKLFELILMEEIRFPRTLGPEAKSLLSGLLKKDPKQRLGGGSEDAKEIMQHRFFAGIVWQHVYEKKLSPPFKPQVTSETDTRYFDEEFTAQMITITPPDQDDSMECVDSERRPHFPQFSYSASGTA
Procedure: The biochemical inhibitory activity (IC50) was determined with the HTRF KinEASE assay from Cisbio as
previously described.1 All reagents for HTRF experiments were purchased from Cisbio Bioassays,
France. The measurements were analyzed using the Quattro Software Suite for IC50-determination.
Time-dependent IC50-measurements were performed as described. Briefly, IC50 values were
determined for twelve different incubation times and afterwards plotted versus accordingly. Data was
analyzed according to literature procedure.2

[18] = system: T47D; test: Cell viability assay (CellTiter-Glo); type: cell-based; settings: Homo sapiens, 120 h; T47D (breast), day 5; read-out: Cell viability assay EC50
Procedure: Cell Culture and Viability Assay
analysis, cells were plated on day 0 into white 384-well cell culture plates (Greiner Bio-One) using a
Multidrop reagent dispenser (Thermo) at cell numbers that ensure linear and optimal luminescent
signal intensity (AN3-CA: 800 cells/well; BT-474: 400 cells/well; Dan-G: 400 cells/well; HPAF-II: 400
cells/well). Then the cells were incubated for 24 h in a humidified atmosphere at 37 °C/5 % CO2. The
cells were treated with inhibitors in serial dilutions ranging from 30 µM down to 0.1 nM using an Echo
520 acoustic liquid handler (Labcyte Inc.). Cell viability was analysed on day 5 using the CellTiter-Glo
assay (Promega) as per manufacturer’s instructions. Luminescence signal was recorded by an EnVision
Multilabel 2104 Plate Reader (PerkinElmer) with 500 ms integration time. All data were normalized to
the plate positive control (30 µM staurosporine) and negative control (DMSO). Finally, the data was
processed with the Quattro Software Suite using a four parameter logistic model. As a quality control,
the Z’-factor was calculated from 16 positive and negative control values. Only assay results showing
a Z’-factor ≥ 0.5 were used for further analysis. All experimental points were measured in duplicates
for each plate and were replicated in at least three times.

`C=CC(=O)Nc1cccc(C(=O)NC2CCN(Cc3ccc(-c4nc5cc[nH]c(=O)c5cc4-c4ccccc4)cc3)CC2)c1` [30b] showed an inhibition at 1 µM [1] of 10%, an inhibition at 1 µM [2] of 3% and an inhibition at 1 µM [3] of 1%. The inhibition at 1 µM [4] was 34%, the inhibition at 1 µM [5] was 19% and the inhibition at 1 µM [6] was 22%. The inhibition at 1 µM [7] was 52%, the inhibition at 1 µM [8] was 27% and the inhibition at 1 µM [9] was 4%. For the same compound, the inhibition at 1 µM [10] was 44%, the inhibition at 1 µM [11] was 4% and the inhibition at 1 µM [12] was 13%. For the same compound, the inhibition at 1 µM [13] was 10%, the inhibition at 1 µM [14] was 1% and the inhibition at 1 µM [15] was 3%. It also gave a half-life at 1 h, 3 µM [16] of 58 min and a microsomal CLint at 3 µM [16] of 8 µL/min/mg.
`C=CC(=O)Nc1cc(NC(=O)NC2CCN(Cc3ccc(-c4nc5cc[nH]c(=O)c5cc4-c4ccccc4)cc3)CC2)ccc1Cl` [compound 27] showed an inhibition at 1 µM [1] of -4%, an inhibition at 1 µM [2] of 4% and an inhibition at 1 µM [3] of -2%. The inhibition at 1 µM [4] was 54%, the inhibition at 1 µM [5] was 26% and the inhibition at 1 µM [6] was 10%. For the same compound, the inhibition at 1 µM [7] was 83%, the inhibition at 1 µM [8] was 22% and the inhibition at 1 µM [9] was 6%. For the same compound, the inhibition at 1 µM [10] was 3%, the inhibition at 1 µM [11] was -3% and the inhibition at 1 µM [12] was 13%. It also gave an inhibition at 1 µM [13] of 8%, an inhibition at 1 µM [14] of 6% and a half-life at 1 h, 3 µM [16] of 19 min. It also gave a microsomal CLint at 3 µM [16] of 24 µL/min/mg.
Compound `C=CC(=O)Nc1ccc2c(c1)n(C1CCN(Cc3ccc(-c4nc5cc[nH]c(=O)c5cc4-c4ccccc4)cc3)CC1)c(=O)n2C` [24b] has an inhibition at 1 µM [1] of 2%, an inhibition at 1 µM [2] of -1% and an inhibition at 1 µM [3] of 8%. For the same compound, the inhibition at 1 µM [4] was 16%, the “fold loss in inhibitory activity (IC50) compared to 1” value [17] was 3 fold and the IC50 ([17]; HTRF KinEASE) was 3 ± 0.3 nM. For the same compound, the inhibition at 1 µM [5] was 10%, the inhibition at 1 µM [6] was 7% and the inhibition at 1 µM [7] was 48%. It also gave an inhibition at 1 µM [8] of 14%, an inhibition at 1 µM [9] of 4% and an inhibition at 1 µM [10] of 28%. The inhibition at 1 µM [11] was -6%, the inhibition at 1 µM [12] was 8% and the inhibition at 1 µM [13] was -1%. For the same compound, the EC50 [18] was 11 ± 2 nM, the inhibition at 1 µM [14] was -1% and the inhibition at 1 µM [15] was 0%. For the same compound, the half-life at 1 h, 3 µM [16] was 25 min and the microsomal CLint at 3 µM [16] was 19 µL/min/mg.
